# Tests used:
# [1] = test system: blood pressure lowering and heart frequency increasing effects induced by isoproterenol; assay: Isoproterenol-induced blood pressure lowering and heart frequency increase in cats; assay type: in vivo; details: LD50/10 i.v., 2 mg/kg i.v. isoproterenol
# [2] = test system: blood pressure and heart frequency; assay type: in vivo, cats
# [3] = test system: rabbit ilium; assay: Spasmolytic effect on rabbit ilium
# [4] = test system: rat intestine; assay: Spasms induced in rat intestine by acetylcholine or barium chloride
# [5] = Acute toxicity in mice i.v.; details: mouse, in vivo, iv
# [6] = test system: blood pressure; assay: Blood pressure, heart frequency and breathing in rabbits; assay type: in vivo; details: i.v. or enterally
# From the text: (§1) Propanolamines of formula (Ib) [drawing 4] constitute another special subgroup of compounds of formula (I). In formula (Ib) R1 and R2 are as defined above. These compounds have also very advantageous pharmaceutical effects, which, however, differ from the effects of the butanolamines of formula (Ia).
# [7] = test system: rat Langendorff-heart; assay: Coronary flow in rat Langendorff-heart; details: 10 μg/0,1 ml dose
# From the text: as §1
# [8] = test system: guinea pig isolated left auricle; assay: Effective refractory period in guinea pig isolated left auricle (electrophysiology); details: 5×10^-5 M
# From the text: (§2) The antiisoproterenol effect of the compound is moderated.
# [9] = test system: trachea preparation; assay: Antiisoproterenol effect in trachea preparation
# From the text: as §2
# [10] = test system: ventricular tadhycardia provoked by Strophantin; assay: Strophantin-provoked ventricular tachycardia in anesthetized cats; assay type: in vivo
# From the text: (§3) In formula (Ia) R1 and R2 are as defined above, preferably R1 is branched alkyl or cycloalkyl, and R2 is hydrogen.
# [11] = test system: arrhythmia induced by 30 μg/kg i.v. aconitin; assay: Aconitin-induced arrhythmia in rats; assay type: in vivo; details: LD50/10 i.v.
# From the text: as §3
# [12] = test system: ventricular fibrillation threshold; assay: Ventricular fibrillation threshold in open-chested anesthetized cats; assay type: in vivo
# From the text: as §3
# [13] = test system: guinea pig isolated left auricle; assay: Antiisoproterenol effect in guinea pig isolated left auricle
# From the text: as §2
# [14] = test system: β-receptor; assay: Antiisoproterenol effect, overall and concentration curves
# From the text: as §2
# [15] = test system: increase of the T-wave in the electrocardiogram induced by ornithine-vasopressin; assay: Ornithine-vasopressin-induced T-wave increase in ECG of rabbits anesthetized with urethane (antianginic); assay type: in vivo; details: LD50/40
# From the text: From the pharmaceutical point of view the strong antianginic effect of our compounds of formula (Ia) is very important.
compound,measurement,setting,value
"CC1CCc2ccc(OCC(O)CNC3CCCCC3)cc2O1 (centres unmarked) [1-(2-methyl-3,4-dihydro-2H-1-benzopyrane-7-yloxy)-3-cyclohexylamino-2-propanol]",inhibition of blood pressure lowering and heart frequency increasing effects induced by isoproterenol,[1],inhibits strongly
"Cc1cc(=O)c2ccc(OCC(O)CNC(C)(C)C)cc2o1 (centres unmarked) [1-(2-methyl-4H-1-benzopyrane-4-one-7-yloxy)-3-(1,1-dimethylethylamino)-2-propanol]",reduction of blood pressure,"[2]; LD50/20 i.v., anesthetized cats",50.2%
same,effect on heart frequency,"[2]; in vivo, iv",without significantly affecting their heart frequency
same,spasmolytic effect,[3],spasmolytic agent with parasympatholytic and direct striped muscle effects
same,effect against spasms induced by acetylcholine,[4]; acetylcholine,effective
same,effect against spasms induced by barium chloride,[4]; barium chloride,effective
"CC(C)NCC(O)COc1ccc2c(c1)OCCC2 (centres unmarked) [1-(3,4-dihydro-2H-1-benzopyrane-7-yloxy)-3-(1-methylethylamino)-2-propanol]",blood pressure lowering,"[2]; LD50/320 i.v., anesthetized cats","33,5%"
same,LD50,[5],66 mg/kg
"CC(C)NCC(O)COc1ccc2c(c1)OCC(c1ccccc1)C2 (centres unmarked) [1-(3-phenyl-3,4-dihydro-2H-1-benzopyrane-7-yloxy)-3-(1-methylethylamino)-2-propanol]",blood pressure lowering,[6],significant and long-lasting blood pressure lowering
same,"effect on heart frequency, volume of breathing and frequency of breathing",[6],"without affecting the heart frequency, the volume of breathing and the frequency of breathing"
same,coronary flow,[7],increases the coronary flow
"OC(CCNC1CCCCC1)COc1ccc2c(c1)OC(c1ccccc1)CC2 (centres unmarked) [4-cyclohexylamino-1-(2-phenyl-3,4-dihydro-2H-1-benzopyrane-7-yloxy)-2-butanol]",effect on effective refractory period compared with Practolol,[8]; versus Practolol,stronger by nearly an order of magnitude than that of Practolol
same,effect on effective refractory period compared with Propranolol,[8]; versus Propranolol,almost as strong as the effect of Propranolol
same,concentration with antiisoproterenol effect in trachea preparation,[9],10^-4 M
same,time for which ventricular tachycardia provoked by Strophantin is suspended,[10],19 min
same,effect on arrhythmia induced by aconitin,[11],revokes arrhythmia
same,ventricular fibrillation threshold,[12],remarkably increases
same,"ventricular fibrillation threshold, effect compared with Propranolol",[12]; versus Propranolol,stronger effect that that of Propranolol
same,concentration with antiisoproterenol effect in left auricle,[13],50 µM
same,antiisoproterenol effect,[14]; overall,moderated
same,character of the antiisoproterenol effect,[14]; runs of the concentration curves,not of a competitive character
"OC(CCNC1CCCCC1)COc1ccc2c(c1)OCC(c1ccccc1)C2 (centres unmarked) [4-cyclohexylamino-1-(3-phenyl-3,4-dihydro-2H-1-benzopyrane-7-yloxy)-2-butanol]",elimination of the increase of the T-wave in the electrocardiogram,"[15]; rabbits anesthetized with urethane, 0.5 E/kg ornithine-vasopressin",eliminates practically completely
same,effect on T-wave increase compared with Propranolol,[15]; versus Propranolol,significantly surpasses the effect of Propranolol
